This is an account of results in patent US11058678B2 (Enanta Pharmaceuticals, Inc., priority 2018, dated 2021).

In general, EC50 refers to the concentration that produces a half-maximal response. Read a low EC50 as higher potency in that assay.

Each structure is given as a SMILES string. Bounds are passed on as bounds.

This assay deals with HBV (2.2.15 cells). The assay can be described thus: Antiviral activity in 2.2.15 cells: reduction of viral product accumulation (qPCR of lysates, HBsAg or HBeAg ELISA). The class given is cell-based, hepatitis B virus (HBV). To be noted: Hepatitis B virus, 120 h, day 5 post treatment, 50% reduction of viral product accumulation in lysates or supernatants vs no drug controls, readout (qPCR, HBsAg, HBeAg) not specified. The procedure: 2.2.15 cells are passaged upon attaining confluency in DMEM/F12 media in the presence of 10% FBS, Penn/Strep, and 250 ug/mL G418. Novel compounds are 5 fold serially diluted in DMSO and added to 96 well plates containing 35,000 cells/well at a 1:200 dilution so that the final concentration of DMSO is 0.5%. On day 5, post treatment cell lysates and supernatants are harvested for analysis.
Cells are lysed using Agilent Sidestep Lysis buffer, diluted 1:100 and quantified via quantitative real time PCR. Commercially available ELISA kits are used to quantitate the viral proteins HBsAg (Alpco) or HBeAg (US Biological) by following the manufacturer's recommended protocol after diluting samples to match the linear range of their respective assays. Irrespective of readout, compound concentrations that reduce viral product accumulation in the cell lysates or supernatants by 50% relative to no drug controls (EC50) are reported; EC50 ranges are as follows: A<0.1 μM; B 0.1-1 μM; C>1 μM.
Turning to `CC(C)[C@@H]1Cc2c(cc(-c3cccc(Cl)c3)c3c2CCO3)-c2cc(=O)c(C(=O)O)cn21` [Example 112, (S)-12-(3-chlorophenyl)-5-isopropyl-9-oxo-2,3,4,9-tetrahydro-5H-furo[3,2-f]pyrido[2,1-a]isoquinoline-8-carboxylic Acid], the EC50 is > 1000 nM.
On to `COc1cccc(-c2cc3c(c4c2OCC4)C[C@@H](C(C)C)n2cc(C(=O)O)c(=O)cc2-3)c1` [Example 92, (S)-5-isopropyl-12-(3-methoxyphenyl)-9-oxo-2,3,4,9-tetrahydro-5H-furo[3,2-f]pyrido[2,1-a]isoquinoline-8-carboxylic Acid], for which the EC50 was < 100 nM.
For the compound `CC(C)[C@@H]1Cc2c(cc(-c3ccccc3F)c3c2CCO3)-c2cc(=O)c(C(=O)O)cn21` [Example 108, (S)-12-(2-fluorophenyl)-5-isopropyl-9-oxo-2,3,4,9-tetrahydro-5H-furo[3,2-f]pyrido[2,1-a]isoquinoline-8-carboxylic Acid], the EC50 was < 100 nM.
With `CC(C)[C@@H]1Cc2c(cc(-c3ccoc3)c3c2CCO3)-c2cc(=O)c(C(=O)O)cn21` [Example 90, (S)-12-(furan-3-yl)-5-isopropyl-9-oxo-2,3,4,9-tetrahydro-5H-furo[3,2-f]pyrido[2,1-a]isoquinoline-8-carboxylic Acid] the figure was < 100 nM; with `CC(C)[C@@H]1Cc2c(cc(N3CCCC3)c3c2CCO3)-c2cc(=O)c(C(=O)O)cn21` [Example 110, (S)-5-isopropyl-9-oxo-12-(pyrrolidin-1-yl)-2,3,4,9-tetrahydro-5H-furo[3,2-f]pyrido[2,1-a]isoquinoline-8-carboxylic Acid], < 100 nM; with `CC1(C)Cc2c3c(cc(-c4ccsc4)c2O1)-c1cc(=O)c(C(=O)O)cn1[C@H](C(C)(C)C)C3` [Example 149, (S)-5-(tert-butyl)-2,2-dimethyl-9-oxo-12-(thiophen-3-yl)-2,3,4,9-tetrahydro-5H-furo[3,2-f]pyrido[2,1-a]isoquinoline-8-carboxylic Acid], > 1000 nM.
On to `CC(C)(C)[C@@H]1Cc2c(cc(-c3cccc(C(F)(F)F)c3)c3c2CCO3)-c2cc(=O)c(C(=O)O)cn21` [Example 81, (S)-5-(tert-butyl)-9-oxo-12-(3-(trifluoromethyl)phenyl)-2,3,4,9-tetrahydro-5H-furo[3,2-f]pyrido[2,1-a]isoquinoline-8-carboxylic Acid], for which the EC50 is > 1000 nM.
Regarding `Cn1cc(-c2cc3c(c4c2OCC4)C[C@@H](C(C)(C)C)n2cc(C(=O)O)c(=O)cc2-3)cn1` [Example 69, (S)-5-(tert-butyl)-12-(1-methyl-1H-pyrazol-4-yl)-9-oxo-2,3,4,9-tetrahydro-5H-furo[3,2-f]pyrido[2,1-a]isoquinoline-8-carboxylic Acid], the half-maximal effective concentration (EC50) is < 100 nM.
On to `COCCCOc1cc2c(cc1-c1ccoc1)-c1cc(=O)c(C(=O)O)cn1[C@H]1[C@@H]2COC1(C)C` [Example 126, (3aS,12bR)-10-(furan-3-yl)-11-(3-methoxypropoxy)-3,3-dimethyl-7-oxo-3,3a,7,12b-tetrahydro-1H-furo[3,4-c]pyrido[2,1-a]isoquinoline-6-carboxylic Acid], for which the EC50 was < 100 nM.
For `CC(C)[C@@H]1Cc2c(cc(-c3ccc(F)c(F)c3)c3c2CCO3)-c2cc(=O)c(C(=O)O)cn21` [Example 114, (S)-12-(3,4-difluorophenyl)-5-isopropyl-9-oxo-2,3,4,9-tetrahydro-5H-furo[3,2-f]pyrido[2,1-a]isoquinoline-8-carboxylic Acid], the EC50 was > 1000 nM.
For `COCCCOc1cc2c(cc1-c1cc(OC)nnc1OC)-c1cc(=O)c(C(=O)O)cn1[C@H](C(C)(C)C)C2` [Example 45, (S)-6-(tert-butyl)-10-(3,6-dimethoxypyridazin-4-yl)-9-(3-methoxypropoxy)-2-oxo-6,7-dihydro-2H-pyrido[2,1-a]isoquinoline-3-carboxylic Acid], the EC50 is < 100 nM.
Regarding `Cn1nccc1-c1cc2c(c3c1OCC3)C[C@@H](C(C)(C)C)n1cc(C(=O)O)c(=O)cc1-2` [Example 68, (S)-5-(tert-butyl)-12-(1-methyl-1H-pyrazol-5-yl)-9-oxo-2,3,4,9-tetrahydro-5H-furo[3,2-f]pyrido[2,1-a]isoquinoline-8-carboxylic Acid], the EC50 is < 100 nM.
Consider `COCCCOc1cc2c(cc1-c1cnn(C)c1)-c1cc(=O)c(C(=O)O)cn1[C@H]1[C@@H]2COC1(C)C` [Example 123, (3aS,12bR)-11-(3-methoxypropoxy)-3,3-dimethyl-10-(1-methyl-1H-pyrazol-4-yl)-7-oxo-3,3a,7,12b-tetrahydro-1H-furo[3,4-c]pyrido[2,1-a]isoquinoline-6-carboxylic Acid], for which the EC50 is < 100 nM.
For `COc1ccc(-c2cc3c(c4c2OCC4)C[C@@H](C(C)C)n2cc(C(=O)O)c(=O)cc2-3)cc1` [Example 115, (S)-5-isopropyl-12-(4-methoxyphenyl)-9-oxo-2,3,4,9-tetrahydro-5H-furo[3,2-f]pyrido[2,1-a]isoquinoline-8-carboxylic Acid], the EC50 is > 1000 nM.
Consider `COCCCOc1cc2c(cc1-c1ccc3oncc3c1)-c1cc(=O)c(C(=O)O)cn1[C@H](C(C)(C)C)C2` [Example 47, (S)-10-(benzo[d]isoxazol-5-yl)-6-(tert-butyl)-9-(3-methoxypropoxy)-2-oxo-6,7-dihydro-2H-pyrido[2,1-a]isoquinoline-3-carboxylic Acid], for which the EC50 is > 1000 nM.
Take `COCCCOc1cc2c(cc1-c1nnc(C(F)(F)F)o1)-c1cc(=O)c(C(=O)O)cn1[C@H](C(C)(C)C)C2` [Example 53, (S)-6-(tert-butyl)-9-(3-methoxypropoxy)-2-oxo-10-(5-(trifluoromethyl)-1,3,4-oxadiazol-2-yl)-6,7-dihydro-2H-pyrido[2,1-a]isoquinoline-3-carboxylic Acid]: the EC50 is < 100 nM.
With `Cn1cc(-c2cc3c(c4c2OC(C)(C)C4)C[C@@H](C(C)(C)C)n2cc(C(=O)O)c(=O)cc2-3)cn1` [Example 151, (S)-5-(tert-butyl)-2,2-dimethyl-12-(1-methyl-1H-pyrazol-4-yl)-9-oxo-2,3,4,9-tetrahydro-5H-furo[3,2-f]pyrido[2,1-a]isoquinoline-8-carboxylic Acid] the figure was > 1000 nM; with `CC(C)(C)[C@@H]1Cc2c(cc(N3CCOCC3)c3c2CCO3)-c2cc(=O)c(C(=O)O)cn21` [Example 118, (S)-5-(tert-butyl)-12-morpholino-9-oxo-2,3,4,9-tetrahydro-5H-furo[3,2-f]pyrido[2,1-a]isoquinoline-8-carboxylic Acid], < 100 nM; with `Cn1nccc1-c1cc2c(c3c1OC(C)(C)C3)C[C@@H](C(C)(C)C)n1cc(C(=O)O)c(=O)cc1-2` [Example 150, (S)-5-(tert-butyl)-2,2-dimethyl-12-(1-methyl-1H-pyrazol-5-yl)-9-oxo-2,3,4,9-tetrahydro-5H-furo[3,2-f]pyrido[2,1-a]isoquinoline-8-carboxylic Acid], > 1000 nM.
With `CC1(C)Cc2c3c(cc(-c4ccn[nH]4)c2O1)-c1cc(=O)c(C(=O)O)cn1[C@H](C(C)(C)C)C3` [Example 146, (S)-5-(tert-butyl)-2,2-dimethyl-9-oxo-12-(1H-pyrazol-5-yl)-2,3,4,9-tetrahydro-5H-furo[3,2-f]pyrido[2,1-a]isoquinoline-8-carboxylic Acid] the figure was > 1000 nM.
